In assay [1] the target is T1, alkaline phosphatase (Human Placenta) (Homo sapiens, UniProt P05187).
T1 construct: roughly 2-fold for the eel intestine and human placenta isoforms of the enzyme; from tissue; host or cells: human placenta
Kind of assay: Alkaline phosphatase inhibition, Human Placenta isoform. The conditions noted are these: for pIC50: Human Placenta, pH 10. Type of assay: biochemical. On the procedure: (§1) Reactions were conducted in 200 mM diethanolamine buffer, pH 10, with methylumbeliferal phosphate as the substrate. The reaction was monitored by recording fluorescence of the hydrolysis product (excitation at 355 nm, fluorescence at […]), and the first 10% of the reaction was used to determine the rate of the reaction.
(§2) In the presence of 100 μM human serum albumin, compound 1 was seen to be a better inhibitor for four of the enzymes tested relative to the inhibition seen in the absence of albumin.

The target of assay [2] is T2, alkaline phosphatase (Bovine Milk) (Bos taurus, UniProt P09487).
T2 construct: Bovine Milk; from tissue; host or cells: bovine milk
T2 sequence (P09487 18-499): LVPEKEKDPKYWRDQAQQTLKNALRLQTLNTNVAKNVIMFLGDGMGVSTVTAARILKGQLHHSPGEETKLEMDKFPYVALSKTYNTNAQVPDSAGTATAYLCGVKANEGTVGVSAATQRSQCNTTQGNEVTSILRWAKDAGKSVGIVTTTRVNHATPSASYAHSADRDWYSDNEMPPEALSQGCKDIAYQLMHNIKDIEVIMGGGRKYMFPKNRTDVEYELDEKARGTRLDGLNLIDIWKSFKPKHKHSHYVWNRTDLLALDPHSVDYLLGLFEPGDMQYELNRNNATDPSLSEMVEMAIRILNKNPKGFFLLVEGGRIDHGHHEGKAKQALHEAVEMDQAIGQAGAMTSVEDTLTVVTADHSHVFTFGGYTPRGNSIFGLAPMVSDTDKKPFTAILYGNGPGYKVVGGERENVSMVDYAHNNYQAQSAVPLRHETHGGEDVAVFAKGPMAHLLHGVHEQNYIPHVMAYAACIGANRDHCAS
Kind of assay: Alkaline phosphatase inhibition, Bovine Milk isoform. The format is biochemical. On the procedure:
as §1, §2

Assay [3] addresses alkaline phosphatase (Rabbit Intestine) (Oryctolagus cuniculus, UniProt G1SXE4). Kind of assay: Alkaline phosphatase inhibition, Rabbit Intestine isoform. The note with it: 100 μM human serum albumin vs none. Type of assay: biochemical. As to the method: as §1, §2
For assay [4], the target named is T3, alkaline phosphatase (Porcine Kidney) (Sus scrofa, UniProt A0A4X1W3F8).
T3 sequence (A0A4X1W3F8 1-524): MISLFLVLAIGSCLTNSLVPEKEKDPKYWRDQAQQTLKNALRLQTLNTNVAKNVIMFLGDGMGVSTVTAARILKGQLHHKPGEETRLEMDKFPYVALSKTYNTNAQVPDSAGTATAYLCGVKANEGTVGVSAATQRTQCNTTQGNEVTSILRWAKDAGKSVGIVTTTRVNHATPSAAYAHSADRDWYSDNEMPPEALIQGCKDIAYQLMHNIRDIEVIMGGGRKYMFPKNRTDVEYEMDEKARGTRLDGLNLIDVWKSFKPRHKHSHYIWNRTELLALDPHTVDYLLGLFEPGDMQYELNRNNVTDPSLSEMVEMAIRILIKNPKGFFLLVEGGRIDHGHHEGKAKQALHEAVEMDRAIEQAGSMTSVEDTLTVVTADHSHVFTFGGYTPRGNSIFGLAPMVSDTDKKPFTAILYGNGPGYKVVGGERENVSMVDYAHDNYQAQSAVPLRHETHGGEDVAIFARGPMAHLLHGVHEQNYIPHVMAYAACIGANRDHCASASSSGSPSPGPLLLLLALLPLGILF
As to the kind of experiment: Alkaline phosphatase inhibition, Porcine Kidney isoform. The format is biochemical. On the procedure:
as §1, §2

For assay [5], the target named is alkaline phosphatase (Shrimp) (Pandalus borealis, UniProt Q9BHT8). As to the kind of experiment: Alkaline phosphatase inhibition, Shrimp isoform. Type of assay: biochemical. The note with it: Shrimp, pH 10. As to the method:
as §1, §2

The subject of assay [6] is alkaline phosphatase (Shrimp). Kind of assay: Alkaline phosphatase inhibition, Shrimp isoform. The format is biochemical. The note with it: shrimp isoform; 100 μM human serum albumin vs none. On the procedure: as §1, §2
Assay [7] has as its target alkaline phosphatase (Bacteria) (Escherichia coli, UniProt P00634). Kind of assay: Alkaline phosphatase inhibition, Bacteria isoform. The format is biochemical. On the procedure:
as §1, §2

Assay [8] deals with alkaline phosphatase (Dog Intestine) (Canis lupus familiaris, UniProt A0A8C0LCK3). Kind of assay: Alkaline phosphatase inhibition, Dog Intestine isoform. Type of assay: biochemical. As to the method:
as §1, §2

Assay [9] concerns the target alkaline phosphatase (Eel Intestine) (Anguilla anguilla, UniProt A0A9D3RXU0). Kind of assay: Alkaline phosphatase inhibition, Eel Intestine isoform. The conditions noted are these: 100 μM human serum albumin vs none. The format is biochemical. On the procedure:
as §1, §2

In assay [10] the target is alkaline phosphatase. The note with it: known inhibitor; cited from earlier work.
The target of assay [11] is T4, Fyn SH2 domain (Homo sapiens, UniProt P06241).
T4 construct: The Fyn, Lck and PLC SH2 domains were expressed in bacteria as GST fusion proteins; GST (cleaved yes); made in house; host or cells: bacteria
T4 sequence (P06241 149-246 limits assumed): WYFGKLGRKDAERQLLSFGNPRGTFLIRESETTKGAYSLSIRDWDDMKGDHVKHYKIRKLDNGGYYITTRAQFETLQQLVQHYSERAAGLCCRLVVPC
As to the kind of experiment: Competition binding assay of radioactive Fyn SH2 domain to pYEEI beads. An excerpt: (§3) The pYEEI peptide was coupled to Affi-Gel 10 beads (Biorad) via its amino-group. The Fyn, Lck and PLC SH2 domains were expressed in bacteria as GST fusion proteins. The linker between the GST protein and the SH2 domain contained a thrombin cleavage site and a protein kinase A (PKA) phosphorylation site. The fusion protein on glutathione beads was radioactively labeled at the PKA phosphorylation site using PKA (Sigma). After extensive washing of the beads, the radioactive SH2 domain was released by cleavage with thrombin (Sigma). In a typical binding assay, 7.5 L of a 1:1 peptide bead slurry were incubated with the radioactive SH2 domain (200 nM) for 2 hours in 100 L of binding buffer (20 mM Tris pH7.2; 150 mM NaCl). In order to separate the radioactive protein bound to the beads, the binding reaction was transfered into a PCR tube (USA Scientific Plastic), whose bottom had been punctured with a 26gauge needle. The PCR tube was placed in a 0.5 mL Eppendorf tube which in turn was placed in a regular 1.5 mL Eppendorf tube. The tubes were spun for 1 second at maximal speed in an Eppendorf centrifuge resulting in the separation of the beads remaining in the PCR tube and the supernatant, which was collected in the 0.5 ml Eppendorf tube. The beads were resuspended in […] PBS and the radioactivity was counted in a liquid scintillation counter after addition of 3 ml scintillation fluid. The radioactivity remaining in the 100 L supernatant was counted in the same way. It was determined that under the conditions described 65% Fyn, 25% PLC and 15%Lck SH2 domain were bound to the beads. By increasing the amount of beads, up to 80% Fyn, 40% PLC and 25% Lck could be bound. These amounts reflect the active fraction of SH2 domains in the different protein preparations.
In order to determine the relative affinity of the SH2 domains for FKpYEEI or SLFpYEEI alone and FKpYEEI or SLFpYEEI bound to FKBP12 and FKBP52, the following competition assay was used. Radioactive SH2 domains were incubated with pYEEI peptide beads and FKpYEEI or SLFpYEEI in the presence or absence of the respective FKBP proteins. FKpYEEI and FKpYEEI/FKBP as well as SLFpYEEI and SLFpYEEI/FKBP compete for binding of the SH2 domains with the peptide beads. The higher the affinity of the FKpYEEI or SLFpYEEI ligand in the supernatant, the less SH2 domain is bound to the peptide beads (FIG. 3).
Using the competition binding assay described above, FKpYEEI was added to peptide beads and the Fyn SH2 domain in the presence of increasing concentrations of FKBP52 (FIG. 4). In this assay, in 100 L binding reactions, radioactively labeled Fyn SH2 domain (200 nM) was incubated with 7.5 L of a 1:1 pYEEI bead slurry. No FKpYEEI, 1.0 M FKpYEEI or 1.0 M FKpYEEI plus increasing concentrations of FKBP52 (0.25-4.0 M) were added. The binding reactions were rotated at room temperature for 2 hours. The supernatant was separated from the beads by spinning the binding reactions in punctured PCR tubes for 1 sec in an Eppendorf centrifuge at maximal speed. The beads were resuspended in 100 1 PBS and the radioactivity bound to the beads was counted in a liquid scintillation vial for 30 sec. The radioactivity bound to the beads in the presence of only the Fyn SH2 domain was plotted as 100% of maximal Fyn SH2 domain binding to pYEEI beads. The radioactivity bound in the presence of FKpYEEI and FKBP52 was calculated as the percentage of maximal Fyn SH2 domain binding. Every binding reaction was done in triplicate. The data points reflect the average of the three binding reactions. The error bars indicate the standard error.
In this assay, in 100 L binding reactions, radioactively labeled Fyn SH2 domain (200 nM) was incubated with 7.5 L of a 1:1 pYEEI bead slurry. […] The binding reactions were rotated at room temperature for 2 hours, centrifuged and analysed as described above. […]

Assay [12] concerns PLC SH2 domain. As to the kind of experiment: Competition binding assay of radioactive PLC SH2 domain to pYEEI beads. The note with it: FKpYEEI 1.5 M plus FKBP12 2.0 M plus FK506 1.0-5.0 M.
From the text: as §3, with “By increasing the amount of beads, up to 80% Fyn, 40% PLC and 25% Lck could be bound. These amounts reflect the active fraction of SH2 domains in the different protein preparations.” left out
The binary complex of FKpYEEI and FKBP 12 has the same affinity for the Fyn SH2 domain as free FKpYEEI (see FIG. 7). […] The binding reactions were rotated at room temperature for 2 hours, centrifuged and analysed as described above.
In this assay, in 100 L binding reactions, radioactively labeled PLC SH2 domain (400 nM) was incubated with 7.5 L of a 1:1 pYEEI bead slurry. […] The binding reactions were rotated at room temperature for 2 hours, centrifuged and analysed as described above. […]

The target of assay [13] is albumin (Homo sapiens, UniProt P02768). The note with it: known ligand; read-out: IC50 as ligand for albumin; cited from earlier work.
Sequence of albumin (P02768 25-609): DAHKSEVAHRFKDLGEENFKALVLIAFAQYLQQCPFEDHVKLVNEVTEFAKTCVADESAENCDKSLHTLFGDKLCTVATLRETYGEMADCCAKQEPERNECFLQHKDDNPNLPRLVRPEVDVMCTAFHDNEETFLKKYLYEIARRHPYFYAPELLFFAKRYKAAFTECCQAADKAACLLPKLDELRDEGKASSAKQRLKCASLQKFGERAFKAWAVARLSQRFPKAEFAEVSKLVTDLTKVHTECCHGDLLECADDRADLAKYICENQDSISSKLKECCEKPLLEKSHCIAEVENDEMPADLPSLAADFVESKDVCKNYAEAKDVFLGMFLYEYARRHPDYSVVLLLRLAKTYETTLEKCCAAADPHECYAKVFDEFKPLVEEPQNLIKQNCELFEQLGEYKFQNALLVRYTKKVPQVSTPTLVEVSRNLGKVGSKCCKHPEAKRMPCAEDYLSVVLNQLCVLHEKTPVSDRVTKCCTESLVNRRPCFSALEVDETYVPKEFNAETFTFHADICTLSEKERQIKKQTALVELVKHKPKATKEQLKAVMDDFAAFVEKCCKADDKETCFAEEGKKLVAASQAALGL
Setting [14] is: 100 μM human serum albumin, pH 10, read-out: IC50 (100 μM albumin).
Setting [15] is: no albumin, pH 10, read-out: IC50 (no albumin).

SMILES strings stand for the structures. pIC50: −log10 of the molar value. Like-named read-outs stand apart in the source and are kept apart here.

T1 sequence (P05187 23-506): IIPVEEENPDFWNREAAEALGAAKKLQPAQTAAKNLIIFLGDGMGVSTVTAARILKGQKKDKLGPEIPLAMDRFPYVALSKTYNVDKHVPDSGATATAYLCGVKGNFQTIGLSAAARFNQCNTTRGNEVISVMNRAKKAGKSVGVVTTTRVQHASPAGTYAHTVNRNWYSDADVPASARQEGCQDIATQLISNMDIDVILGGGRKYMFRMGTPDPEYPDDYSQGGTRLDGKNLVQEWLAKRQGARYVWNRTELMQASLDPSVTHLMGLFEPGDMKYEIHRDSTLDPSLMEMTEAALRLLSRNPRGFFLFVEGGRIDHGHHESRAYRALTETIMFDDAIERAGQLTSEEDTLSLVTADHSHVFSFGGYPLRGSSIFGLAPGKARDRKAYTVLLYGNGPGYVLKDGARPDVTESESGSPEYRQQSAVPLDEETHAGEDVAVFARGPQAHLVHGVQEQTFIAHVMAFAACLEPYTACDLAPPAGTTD
Sequence of alkaline phosphatase (Shrimp) (Pandalus borealis, UniProt Q9BHT8) (Q9BHT8 entry or part of it): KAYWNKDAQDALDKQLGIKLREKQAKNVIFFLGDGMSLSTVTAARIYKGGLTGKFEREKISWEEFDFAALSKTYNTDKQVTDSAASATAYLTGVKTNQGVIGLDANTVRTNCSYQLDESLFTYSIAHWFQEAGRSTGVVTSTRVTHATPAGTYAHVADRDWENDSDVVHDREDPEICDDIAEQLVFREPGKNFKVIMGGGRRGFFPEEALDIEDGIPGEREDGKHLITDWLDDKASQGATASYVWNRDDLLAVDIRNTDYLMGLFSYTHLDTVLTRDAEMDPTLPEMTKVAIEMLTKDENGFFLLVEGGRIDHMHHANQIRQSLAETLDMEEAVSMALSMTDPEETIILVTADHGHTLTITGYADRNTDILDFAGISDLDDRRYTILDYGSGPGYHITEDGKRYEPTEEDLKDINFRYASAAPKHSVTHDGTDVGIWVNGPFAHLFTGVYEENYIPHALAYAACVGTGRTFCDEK
Sequence of alkaline phosphatase (Bacteria) (P00634 22-471): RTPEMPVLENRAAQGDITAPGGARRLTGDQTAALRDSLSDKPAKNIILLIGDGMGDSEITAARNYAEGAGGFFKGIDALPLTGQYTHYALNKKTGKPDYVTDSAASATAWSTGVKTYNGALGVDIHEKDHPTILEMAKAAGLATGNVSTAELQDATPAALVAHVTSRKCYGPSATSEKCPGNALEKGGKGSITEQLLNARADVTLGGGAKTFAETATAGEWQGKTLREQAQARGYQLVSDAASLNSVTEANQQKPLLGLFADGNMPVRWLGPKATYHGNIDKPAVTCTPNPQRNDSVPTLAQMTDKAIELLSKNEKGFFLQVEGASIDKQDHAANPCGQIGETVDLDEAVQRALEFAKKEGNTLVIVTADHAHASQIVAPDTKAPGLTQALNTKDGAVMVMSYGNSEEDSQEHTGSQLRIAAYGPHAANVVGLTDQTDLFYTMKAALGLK
Sequence of alkaline phosphatase (Dog Intestine) (A0A8C0LCK3 23-522): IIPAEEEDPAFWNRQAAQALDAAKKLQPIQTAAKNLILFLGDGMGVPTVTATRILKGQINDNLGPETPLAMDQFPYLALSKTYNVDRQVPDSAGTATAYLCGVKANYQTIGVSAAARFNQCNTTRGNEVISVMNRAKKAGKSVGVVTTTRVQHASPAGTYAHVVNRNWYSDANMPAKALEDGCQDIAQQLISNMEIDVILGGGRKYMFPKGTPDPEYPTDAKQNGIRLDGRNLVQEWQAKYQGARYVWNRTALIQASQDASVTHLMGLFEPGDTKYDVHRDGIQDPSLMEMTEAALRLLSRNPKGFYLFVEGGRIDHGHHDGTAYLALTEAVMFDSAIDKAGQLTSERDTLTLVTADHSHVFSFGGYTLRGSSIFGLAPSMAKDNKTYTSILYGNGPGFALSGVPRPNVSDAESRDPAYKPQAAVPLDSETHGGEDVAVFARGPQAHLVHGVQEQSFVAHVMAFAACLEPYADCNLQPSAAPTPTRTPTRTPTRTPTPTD
Sequence of alkaline phosphatase (Eel Intestine) (A0A9D3RXU0 entry or part of it): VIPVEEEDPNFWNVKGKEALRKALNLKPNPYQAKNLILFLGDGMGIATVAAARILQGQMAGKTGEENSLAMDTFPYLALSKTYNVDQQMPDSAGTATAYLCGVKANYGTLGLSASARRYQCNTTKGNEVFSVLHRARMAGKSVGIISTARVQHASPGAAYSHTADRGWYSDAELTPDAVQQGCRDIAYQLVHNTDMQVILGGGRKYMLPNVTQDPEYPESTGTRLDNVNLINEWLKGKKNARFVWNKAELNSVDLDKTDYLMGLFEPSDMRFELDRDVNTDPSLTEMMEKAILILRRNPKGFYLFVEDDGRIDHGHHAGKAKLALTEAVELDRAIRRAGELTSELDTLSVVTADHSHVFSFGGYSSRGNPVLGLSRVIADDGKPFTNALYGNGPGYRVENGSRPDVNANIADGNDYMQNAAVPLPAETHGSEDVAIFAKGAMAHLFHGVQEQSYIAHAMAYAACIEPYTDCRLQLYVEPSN
Sequence of alkaline phosphatase (Rabbit Intestine) (G1SXE4 25-504): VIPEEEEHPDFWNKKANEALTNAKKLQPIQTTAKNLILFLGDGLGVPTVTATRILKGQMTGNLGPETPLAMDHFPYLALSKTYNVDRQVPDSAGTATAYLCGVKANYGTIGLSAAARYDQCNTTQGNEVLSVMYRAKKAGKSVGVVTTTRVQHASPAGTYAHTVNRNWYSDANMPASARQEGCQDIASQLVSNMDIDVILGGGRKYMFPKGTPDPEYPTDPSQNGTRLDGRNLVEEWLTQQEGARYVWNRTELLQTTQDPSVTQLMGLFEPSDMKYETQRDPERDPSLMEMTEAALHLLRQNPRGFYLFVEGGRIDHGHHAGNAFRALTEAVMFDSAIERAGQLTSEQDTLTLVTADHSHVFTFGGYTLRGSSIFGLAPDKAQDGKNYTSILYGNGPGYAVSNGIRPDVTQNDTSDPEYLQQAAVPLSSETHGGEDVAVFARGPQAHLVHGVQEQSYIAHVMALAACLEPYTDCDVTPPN

On to `CC(C)(S)C(N)C(=O)NCC(=O)Nc1ccc(C(=O)O)c(O)c1` (stereo not drawn) [Compound 1], for which the pIC50 (in general, −log10 of the IC50, conventionally taken in molar units) in assay [1] (100 μM human serum albumin, read-out: IC50 (100 μM albumin)) is 4.35; in assay [1] (no albumin, read-out: IC50 (no albumin)), 3.52; in assay [2] (setting [14]) it was 4.30; in assay [2] (setting [15]), 4.30; in assay [4] (setting [14]) it was 4.30; in [4] (setting [15]), 4.30. Besides, the pIC50 in [5] (IC50 (100 μM albumin), 100 μM human serum albumin) is 4.10; in [5] (IC50 (no albumin), no albumin), 2.52; in assay [7] it was 4.30; in [7] (read-out: IC50 (100 μM albumin), Bacteria, 100 μM human serum albumin, pH 10) it was 4.30; in [8] (read-out: IC50 (100 μM albumin), 100 μM human serum albumin, pH 10), 4.70; in assay [8] (read-out: IC50 (no albumin), no albumin, pH 10), 4.70. The “Decrease of IC50 in the presence of albumin” value in assay [1] (human placenta isoform, 100 μM human serum albumin vs none) is recorded as “roughly 2 fold”; in [3], “roughly 12 fold”; in assay [6], “roughly 12 fold”; in assay [9], “roughly 2 fold”.

On to `CC(C)(S)[C@@H](N)C(=O)O` [Penicillamine], for which, in assay [10], the “IC 50 values for a wide variety of alkaline phosphatase isoforms” value was “in the μM range”.

Regarding `C=CC[C@@H]1/C=C(\C)C[C@H](C)C[C@H](OC)[C@H]2O[C@@](O)(C(=O)C(=O)N3CCCC[C@H]3C(=O)O[C@H](/C(C)=C/[C@@H]3CC[C@@H](O)[C@H](OC)C3)[C@H](C)[C@@H](O)CC1=O)[C@H](C)C[C@@H]2OC` [FK506, reference compound], in assay [11] (FKpYEEI 1.0 M plus FKBP52 2.0 M plus FK506 0.25-15.0 M), the “Effect of added FK506 on the FKBP52 effect” value was “the affinity enhancing effect of FKBP52 is reversed”. Further, the “Effect of added FK506 on the FKBP12 effect” value in assay [11] (SLFpYEEI 1.0 M plus FKBP12 2.0 M plus FK506 1.0-3.0 M) is “reverses the effect of reduced affinity”; in [12], “the affinity reduction is reversed”.

As to `Nc1ccc(C(=O)O)c(O)c1` [para-amino salicylic acid], in assay [13], the negative-log IC50 (pIC50) was 5.30.

Source of the values: patent US6921531B2, “Administering bifunctional molecules containing a drug moiety and presenter protein ligand for therapy” (The Board of Trustees of the Leland Stanford Junior …, priority 1998, dated 2005).
